Data as given in the NIST ThermoML archive (doi:10.1021/acs.jced.5b00369).

Experiment: relative permittivity at zero frequency (dimensionless); xn = mol fraction of the nth substance listed
Conditions: 298.15 K, 101 kPa, Liquid

CCC[N+](=O)[O-] [1-nitropropane] + C1CCCCC1
two-cell dielectric cell
Conditions | relative permittivity at zero frequency
x1 = 0.003184 | 2.05488
x1 = 0.006527 | 2.09539
x1 = 0.01302 | 2.1734
x1 = 0.01942 | 2.24959
x1 = 0.02574 | 2.3244
x1 = 0.02693 | 2.33815
x1 = 0.02818 | 2.3525
x1 = 0.03015 | 2.37603
x1 = 0.03648 | 2.4508
x1 = 0.04272 | 2.52479
x1 = 0.04887 | 2.59808
x1 = 0.05327 | 2.64994
x1 = 0.05626 | 2.68544
x1 = 0.0594 | 2.72327
x1 = 0.06549 | 2.79734
x1 = 0.07152 | 2.87045
x1 = 0.07893 | 2.96124

CCC[N+](=O)[O-] [1-nitropropane] + Cc1ccc(C)cc1
two-cell dielectric cell
Conditions | relative permittivity at zero frequency
x1 = 0.005128 | 2.31627
x1 = 0.007441 | 2.34224
x1 = 0.01482 | 2.4248
x1 = 0.0221 | 2.50652
x1 = 0.02927 | 2.58754
x1 = 0.03246 | 2.62349
x1 = 0.03388 | 2.63942
x1 = 0.03604 | 2.66416
x1 = 0.03819 | 2.68861
x1 = 0.04527 | 2.77022
x1 = 0.05226 | 2.85114
x1 = 0.05913 | 2.93159

CCC[N+](=O)[O-] [1-nitropropane] + ClC(Cl)(Cl)Cl
two-cell dielectric cell
Conditions | relative permittivity at zero frequency
x1 = 0.002869 | 2.27091
x1 = 0.005861 | 2.3147
x1 = 0.01167 | 2.39918
x1 = 0.01742 | 2.48214
x1 = 0.0231 | 2.56405
x1 = 0.0253 | 2.59588
x1 = 0.02987 | 2.66163
x1 = 0.03553 | 2.74365
x1 = 0.04122 | 2.82491
x1 = 0.04993 | 2.95383
x1 = 0.05263 | 2.99295
x1 = 0.05816 | 3.07483
x1 = 0.06363 | 3.15625

CC(C)[N+](=O)[O-] [2-nitropropane] + C1CCCCC1
two-terminal dielectric cell
Conditions | relative permittivity at zero frequency
x1 = 0.001188 | 2.0322
x1 = 0.003139 | 2.0568
x1 = 0.006442 | 2.09876
x1 = 0.009592 | 2.13855
x1 = 0.01286 | 2.18001
x1 = 0.01918 | 2.26067
x1 = 0.02225 | 2.29974
x1 = 0.0266 | 2.35434
x1 = 0.031 | 2.41041
x1 = 0.03475 | 2.45922
x1 = 0.04093 | 2.54037
x1 = 0.04703 | 2.62139
x1 = 0.05035 | 2.66577
x1 = 0.05259 | 2.69578
x1 = 0.05527 | 2.7322
x1 = 0.05838 | 2.77444
x1 = 0.06441 | 2.857
x1 = 0.07038 | 2.93937

CC(C)[N+](=O)[O-] [2-nitropropane] + CC(C)C(C)C
two-terminal dielectric cell
Conditions | relative permittivity at zero frequency
x1 = 0.003786 | 1.92648
x1 = 0.007756 | 1.96704
x1 = 0.01545 | 2.04621
x1 = 0.02302 | 2.12477
x1 = 0.03047 | 2.20279
x1 = 0.03298 | 2.22897
x1 = 0.03446 | 2.24427
x1 = 0.03679 | 2.26913
x1 = 0.04419 | 2.34842
x1 = 0.0515 | 2.42769
x1 = 0.05867 | 2.50669
x1 = 0.06479 | 2.5748
x1 = 0.06604 | 2.58924
x1 = 0.06819 | 2.61329
x1 = 0.07183 | 2.65458
x1 = 0.07889 | 2.73569
x1 = 0.08584 | 2.81657
x1 = 0.09268 | 2.89729

CC(C)[N+](=O)[O-] [2-nitropropane] + Cc1ccc(C)cc1
two-terminal dielectric cell
Conditions | relative permittivity at zero frequency
x1 = 0.005471 | 2.32313
x1 = 0.007307 | 2.34454
x1 = 0.01457 | 2.42922
x1 = 0.02174 | 2.51328
x1 = 0.02879 | 2.59677
x1 = 0.03194 | 2.63439
x1 = 0.03336 | 2.65058
x1 = 0.03555 | 2.67711
x1 = 0.04256 | 2.76165
x1 = 0.04948 | 2.84581
x1 = 0.05628 | 2.92956
x1 = 0.06235 | 3.00461

CC(C)[N+](=O)[O-] [2-nitropropane] + ClC(Cl)(Cl)Cl
two-terminal dielectric cell
Conditions | relative permittivity at zero frequency
x1 = 0.001006 | 2.24531
x1 = 0.002745 | 2.27181
x1 = 0.00569 | 2.31696
x1 = 0.01141 | 2.40482
x1 = 0.01707 | 2.49201
x1 = 0.02266 | 2.57869
x1 = 0.02488 | 2.61322
x1 = 0.02599 | 2.62967
x1 = 0.02803 | 2.6614
x1 = 0.03078 | 2.70432
x1 = 0.03634 | 2.79196
x1 = 0.04183 | 2.87937
x1 = 0.04726 | 2.9666

CC[N+](=O)[O-] [nitroethane] + C1CCCCC1
two-terminal dielectric cell
Conditions | relative permittivity at zero frequency
x1 = 0.003987 | 2.0631
x1 = 0.008153 | 2.11122
x1 = 0.01622 | 2.20858
x1 = 0.02416 | 2.2932
x1 = 0.03312 | 2.3893
x1 = 0.0371 | 2.43784
x1 = 0.04487 | 2.5254
x1 = 0.05252 | 2.6119
x1 = 0.06004 | 2.69759
x1 = 0.06369 | 2.73934
